{
  "source": "patent US10947252B2",
  "about": "“Inhibitors of KEAP1-Nrf2 protein-protein interaction” (Janssen Pharmaceutica NV, priority 2018, dated 2021)",
  "data": [
    {"tested_on": "Glo-Response ARE-luc2P HEK293 cell line", "test": "ARE luciferase reporter cell-based assay;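 further: luciferase signal tracks Nrf2 activation of the ARE once compounds disrupt KEAP1-Nrf2 binding, read with One-Glo reagent, DMSO serving as low control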", "settings": "24 hours, average of results obtained", "units": {"EC50": "nM"}, "values": [
      {"smiles": "Cc1cnc2c(c1)S(=O)(=O)N(Cc1cc(C(c3ccn4c(C(F)(F)F)nnc4c3C)C(C)(C)C(=O)O)ccc1C)CC1(CCOCC1)O2", "note": "(stereo not shown) [Example 406, 2,2-Dimethyl-3-(4-methyl-3-((8′-methyl-1′,1′-dioxido-2,3,5,6-tetrahydrospiro[pyran-4,4′-pyrido[2,3-b][1,4,5]oxathiazepin]-2′(3′H)-yl)methyl)phenyl)-3-(8-methyl-3-(trifluoromethyl)-[1,2,4]triazolo[4,3-a]pyridin-7-yl)propanoic Acid]", "EC50": 3.6}
    ]},
    {"tested_on": "Glo-Response ARE-luc2P HEK293 cell line", "test": "ARE luciferase reporter cell-based assay;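 further: luciferase signal tracks Nrf2 activation of the ARE once compounds disrupt KEAP1-Nrf2 binding, read with One-Glo reagent, DMSO serving as low control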", "settings": "Homo sapiens, HEK293, 24 h, average of results obtained", "units": {"EC50": "nM"}, "values": [
      {"smiles": "Cc1cc2cc([C@H](c3ccc(C)c(CN4CC5(CCOCC5)Oc5nc(OCCN6CCCC6)c(C)cc5S4(=O)=O)c3)C(C)(C)C(=O)O)n(C)c2nn1", "note": "(single isomer, unassigned) [Example 347, (*R)-3-(3,7-Dimethyl-7H-pyrrolo[2,3-c]pyridazine-6-yl)-2,2-dimethyl-3-(4-methyl-3-((8′-methyl-1′,1′-dioxido-7′-(2-(pyrrolidine-1-yl)-ethoxy)2,3,5,6-tetrahydrospiro[pyran-4,4′-pyrido[2,3-b][1,4,5]oxathiazepin]-2′,(3′H)-yl)methyl)phenyl)propanoic Acid]", "EC50": 3580},
      {"smiles": "Cc1ccc([C@H](CC(=O)O)c2ccn3c(C(F)F)nnc3c2C)cc1CN1C[C@H]2CCCCN2c2ncc(F)cc2S1(=O)=O", "note": "(relative stereo) [Example 512, (*S)-3-(3-(Difluoromethyl)-8-methyl-[1,2,4]triazolo[4,3-a]pyridin-7-yl)-3-(3-(((*R)-3-fluoro-5,5-dioxido-7,7a,8,9,10,11-hexahydro-6H-dipyrido[2,1-d:2′,3′-f][1,2,5]thiadiazepin-6-yl)methyl)-4-methylphenyl)propanoic Acid]", "EC50": 3.21},
      {"smiles": "Cc1ccc(C(c2ccn3c(C(F)(F)F)nnc3c2C)C(C)(C)C(=O)O)cc1CN1CC2(CC2)Oc2ncccc2S1(=O)=O", "note": "(stereo not shown) [Example 316, 3-(3-((1′,1′-Dioxidospiro[cyclopropane-1,4′-pyrido[2,3-b][1,4,5]oxathiazepin]-2′(3′H)-yl)methyl)-4-methylphenyl)-2,2-dimethyl-3-(8-methyl-3-(trifluoromethyl)-[1,2,4]triazolo[4,3-a]pyridin-7-yl)propanoic Acid]", "EC50": 1.3},
      {"smiles": "Cc1cnc([C@H](c2ccn3c(C(F)F)nnc3c2C)C(C)(C)C(=O)O)cc1CN1CC2(CC2)Oc2nc(OCCN3CCCCC3)c(C)cc2S1(=O)=O", "note": "(single isomer, unassigned) [Example 637, (*R)-3-(3-(Difluoromethyl)-8-methyl-[1,2,4]triazolo[4,3-a]pyridin-7-yl)-2,2-dimethyl-3-(5-methyl-4-((8′-methyl-1′,1′-dioxido-7′-(2-(piperidin-1-yl)ethoxy)spiro[cyclopropane-1,4′-pyrido[2,3-b][1,4,5]oxathiazepin]-2′(3′H)-yl)methyl)pyridin-2-yl)propanoic Acid]", "EC50": 615},
      {"smiles": "Cc1cnc2c(c1)S(=O)(=O)N(Cc1cc([C@@H](CC(=O)O)c3ccn4c(C(F)F)nnc4c3C)ccc1C)C[C@@H]1CCCCN21", "note": "(stereo in doubt) [Example 501, (*R)-3-(3-(Difluoromethyl)-8-methyl-[1,2,4]triazolo[4,3-a]pyridin-7-yl)-3-(4-methyl-3-(((*S)-3-methyl-5,5-dioxido-7,7a,8,9,10,11-hexahydro-6H-dipyrido[2,1-d:2′,3′-f][1,2,5]thiadiazepin-6-yl)methyl)phenyl)propanoic Acid]", "EC50": 34.5},
      {"smiles": "Cc1cnc2c(c1)S(=O)(=O)N(Cc1cc([C@H](c3ccn4c(C(F)(F)F)nnc4c3C)[C@H](C)C(=O)O)ccc1C)CC1(CC1)O2", "note": "(relative stereo) [Example 545, (2*S,3*R)-2-Methyl-3-(4-methyl-3-((8′-methyl-1′,1′-dioxidospiro[cyclopropane-1,4′-pyrido[2,3-b][1,4,5]oxathiazepin]-2′(3′H)-yl)methyl)phenyl)-3-(8-methyl-3-(trifluoromethyl)-[1,2,4]triazolo[4,3-a]pyridin-7-yl)propanoic Acid]", "EC50": 49.8},
      {"smiles": "CC[C@@H]1CN(Cc2cc([C@H](CC(=O)O)c3ccn4c(C(F)(F)F)nnc4c3C)ccc2C)S(=O)(=O)c2cc(C)cnc2O1", "note": "(relative stereo) [Example 194, (*S)-3-(3-(((*R)-4-Ethyl-8-methyl-1,1-dioxido-3,4-dihydro-2H-pyrido[2,3-b][1,4,5]oxathiazepin-2-yl)methyl)-4-methylphenyl)-3-(8-methyl-3-(trifluoromethyl)-[1,2,4]triazolo[4,3-a]pyridin-7-yl)propanoic Acid]", "EC50": 2},
      {"smiles": "Cc1cnc2c(c1)S(=O)(=O)N(Cc1cc([C@@H](CC(=O)O)c3ccn4c(C(F)F)nnc4c3C)ccc1C)C[C@H]1CCCCN21", "note": "(stereo in doubt) [Example 504, (*R)-3-(3-(Difluoromethyl)-8-methyl-[1,2,4]triazolo[4,3-a]pyridin-7-yl)-3-(4-methyl-3-(((*R)-3-methyl-5,5-dioxido-7,7a,8,9,10,11-hexahydro-6H-dipyrido[2,1-d:2′,3′-f][1,2,5]thiadiazepin-6-yl)methyl)phenyl)propanoic Acid]", "EC50": 7.22},
      {"smiles": "Cc1cc2cc([C@@H](c3ccc(C)c(CN4CC5(CC5)Oc5nc(OCCN6CCCCC6)c(C)cc5S4(=O)=O)c3)C(C)(C)C(=O)O)n(C)c2nn1", "note": "(single isomer, unassigned) [Example 350, (*S)-3-(3,7-Dimethyl-7H-pyrrolo[2,3-c]pyridazine-6-yl)-2,2-dimethyl-3-(4-methyl-3-((8′-methyl-1′,1′-dioxido-7′-(2-(piperidine-1-yl)-ethoxy)spiro[cyclopropane-1,4′-pyrido[2,3-b][1,4,5]oxathiazepin]-2′,(3′H)-yl)methyl)phenyl)propanoic Acid]", "EC50": 23.4},
      {"smiles": "Cc1cnc2c(c1)S(=O)(=O)N(Cc1cc([C@H](CC(=O)O)c3ccn4c(C(F)(F)F)nnc4c3C)ccc1C)C[C@@H]1CCCCN21", "note": "(relative stereo) [Example 307, (*S)-3-(4-methyl-3-(((*S)-3-methyl-5,5-dioxido-7,7a,8,9,10,11-hexahydro-6H-dipyrido[2,1-d:2′,3′-f][1,2,5]thiadiazepin-6-yl)methyl)phenyl)-3-(8-methyl-3-(trifluoromethyl)-[1,2,4]triazolo[4,3-a]pyridin-7-yl)propanoic Acid]", "EC50": 2},
      {"smiles": "Cc1ccc([C@H](CC(=O)O)c2ccn3c(C(F)(F)F)nnc3c2C)cc1CN1C[C@@H]2CCCCN2c2nc(C(N)=O)ccc2S1(=O)=O", "note": "(relative stereo) [Example 203, (*S)-3-(3-(((*S)-2-Carbamoyl-5,5-dioxido-7,7a,8,9,10,11-hexahydro-6H-dipyrido[2,1-d:2′,3′-f][1,2,5]thiadiazepin-6-yl)methyl)-4-methylphenyl)-3-(8-methyl-3-(trifluoromethyl)-[1,2,4]triazolo[4,3-a]pyridin-7-yl)propanoic Acid]", "EC50": 150},
      {"smiles": "Cc1cc2cc([C@@H](c3ccc(C)c(CN4CC5(CCOCC5)Oc5nc(OCCN6CCCC6)c(C)cc5S4(=O)=O)c3)C(C)(C)C(=O)O)n(C)c2nn1", "note": "(single isomer, unassigned) [Example 346, (*S)-3-(3,7-Dimethyl-7H-pyrrolo[2,3-c]pyridazin-6-yl)-2,2-dimethyl-3-(4-methyl-3-((8′-methyl-1′,1′-dioxido-7′-(2-(pyrrolidin-1-yl)ethoxy)-2,3,5,6-tetrahydrospiro[pyran-4,4′-pyrido[2,3-b][1,4,5]oxathiazepin]-2′(3′H)-yl)methyl)phenyl)propanoic Acid]", "EC50": 49.8},
      {"smiles": "Cc1ccc([C@H](CC(=O)O)c2ccn3c(C(F)(F)F)nnc3c2C)cc1CN1CC2(CCOCC2)Oc2ncc(F)cc2S1(=O)=O", "note": "(single isomer, unassigned) [Example 414, (*S)-3-(3-((8′-fluoro-1′,1′-dioxido-2,3,5,6-tetrahydrospiro[pyran-4,4′-pyrido[2,3-b][1,4,5]oxathiazepin]-2′(3′H)-yl)methyl)-4-methylphenyl)-3-(8-methyl-3-(trifluoromethyl)-[1,2,4]triazolo[4,3-a]pyridin-7-yl)propanoic Acid]", "EC50": 11},
      {"smiles": "CCn1nnc2c(C)c([C@@H](CC(=O)O)c3ccc(C)c(CN4C[C@@H]5COCCN5c5ncccc5S4(=O)=O)c3)ccc21", "note": "(single isomer, unassigned) [Example 139, (*S)-3-(3-(((*R)-5,5-Dioxido-7a,8,10,11-tetrahydro-[1,4]oxazino[3,4-d]pyrido[2,3-f][1,2,5]thiadiazepin-6(7H)-yl)methyl)-4-methylphenyl)-3-(1-ethyl-4-methyl-1H-benzo[d][1,2,3]triazol-5-yl)propanoic Acid]", "EC50": 3.3},
      {"smiles": "Cc1cnc2c(c1)S(=O)(=O)N(Cc1cc([C@H](CC(=O)O)c3ccn4c(C(F)(F)F)nnc4c3C)ccc1C)CC1(CC1)O2", "note": "(single isomer, unassigned) [Example 27, (*S)-3-(4-Methyl-3-((8′-methyl-1′,1′-dioxidospiro[cyclopropane-1,4′-pyrido[2,3-b][1,4,5]oxathiazepin]-2′(3′H)-yl)methyl)phenyl)-3-(8-methyl-3-(trifluoromethyl)-[1,2,4]triazolo[4,3-a]pyridin-7-yl)propanoic Acid]", "EC50": 28.8},
      {"smiles": "CCn1nnc2c(C)c(C(CC(=O)O)c3ccc(C)c(CN4C[C@H]5CCCN5c5ccccc5S4(=O)=O)c3)ccc21", "note": "(mixture of isomers) [Example 152, (R/S)-3-(3-(((R)-5,5-Dioxido-7a,8,9,10-tetrahydrobenzo[f]pyrrolo[2,1-d][1,2,5]thiadiazepin-6(7H)-yl)methyl)-4-methylphenyl)-3-(1-ethyl-4-methyl-1H-benzo[d][1,2,3]triazol-5-yl)propanoic Acid]", "EC50": 6.5},
      {"smiles": "Cc1ccc([C@H](CC(=O)O)c2ccn3c(C(F)(F)F)nnc3c2C)cc1CN1CC2CCCCN2c2ncc(Cl)cc2S1(=O)=O", "note": "(mixture of isomers) [Example 191, (3*S)-3-(3-((3-Chloro-5,5-dioxido-7,7a,8,9,10,11-hexahydro-6H-dipyrido[2,1-d:2′,3′-f][1,2,5]thiadiazepin-6-yl)methyl)-4-methylphenyl)-3-(8-methyl-3-(trifluoromethyl)-[1,2,4]triazolo[4,3-a]pyridin-7-yl)propanoic Acid]", "EC50": 1.9},
      {"smiles": "CC[C@@H]1CN(Cc2cc([C@H](CC(=O)O)c3ccn4c(C(F)F)nnc4c3C)ccc2C)S(=O)(=O)c2cccnc2O1", "note": "(relative stereo) [Example 464, (*S)-3-(3-(Difluoromethyl)-8-methyl-[1,2,4]triazolo[4,3-a]pyridin-7-yl)-3-(3-(((R)-4-ethyl-1,1-dioxido-3,4-dihydro-2H-pyrido[2,3-b][1,4,5]oxathiazepin-2-yl)methyl)-4-methylphenyl)propanoic Acid]", "EC50": 24.7}
    ]}
  ]
}
